The values below come from patent US20170334899A1, “AMINO-SUBSTITUTED ISOTHIAZOLES” (Bayer Pharma Aktiengesellschaft, priority 2014, published 2017).

In this test the target is T1, human kinase Mps-1 (Homo sapiens, UniProt P33981).
T1 construct: N-terminally GST-tagged human full length recombinant Mps-1 kinase; GST (N); purchased Invitrogen, Karslruhe, Germany PV4071
T1 sequence (P33981 1-857): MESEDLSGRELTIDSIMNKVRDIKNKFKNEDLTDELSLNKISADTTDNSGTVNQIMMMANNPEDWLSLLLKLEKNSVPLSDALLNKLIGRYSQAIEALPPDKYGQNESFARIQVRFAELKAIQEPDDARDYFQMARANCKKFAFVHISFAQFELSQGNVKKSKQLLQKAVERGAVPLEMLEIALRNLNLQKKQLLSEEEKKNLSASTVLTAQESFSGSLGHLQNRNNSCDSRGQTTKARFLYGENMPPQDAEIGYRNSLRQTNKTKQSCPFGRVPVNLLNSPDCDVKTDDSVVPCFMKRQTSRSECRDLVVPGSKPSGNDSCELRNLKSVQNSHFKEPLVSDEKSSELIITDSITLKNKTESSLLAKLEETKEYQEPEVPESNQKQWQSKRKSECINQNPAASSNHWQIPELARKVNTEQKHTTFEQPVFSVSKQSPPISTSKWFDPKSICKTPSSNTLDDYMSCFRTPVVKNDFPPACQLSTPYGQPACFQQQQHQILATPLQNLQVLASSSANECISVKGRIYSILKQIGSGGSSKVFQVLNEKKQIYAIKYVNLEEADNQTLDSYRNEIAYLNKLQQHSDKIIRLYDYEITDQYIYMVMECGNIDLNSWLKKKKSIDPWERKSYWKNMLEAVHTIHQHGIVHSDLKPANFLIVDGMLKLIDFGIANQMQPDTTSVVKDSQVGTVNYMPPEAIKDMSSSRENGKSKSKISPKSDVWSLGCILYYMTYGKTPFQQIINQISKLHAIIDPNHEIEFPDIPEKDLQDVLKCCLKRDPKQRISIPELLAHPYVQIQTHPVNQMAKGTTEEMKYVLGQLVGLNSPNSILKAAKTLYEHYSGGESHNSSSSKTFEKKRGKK
Kind of test: Mps-1 kinase assay (TR-FRET). The class given is biochemical. The note with it: Mps-1 TR-FRET kinase assay; avg; read-out: Mps1 avg (IC50 [mol/l]). In outline:
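GST-tagged full-length recombinant human Mps-1 (~0.5 nM) pre-incubated 15 min with compound, then reacted 60 min at 22 °C with 10 μM ATP and 1 μM biotinylated peptide in Hepes pH 7.7 buffer. EDTA-stopped; TR-FRET (Eu anti-phospho-Ser/Thr to SA-XLent) 665/620 nm ratio normalised to no-inhibitor and no-enzyme controls.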
On to `CCN1CC[C@H](Oc2ccc(NC(=O)c3c(C)nsc3Nc3cnc(C(F)(F)F)cn3)cn2)[C@@H](F)C1` [Example 365, N-(6-{[(3S,4S)-1-ethyl-3-fluoropiperidin-4-yl]oxy}pyridin-3-yl)-3-methyl-5-{[5-(trifluoromethyl)pyrazin-2-yl]amino}-1,2-thiazole-4-carboxamide], for which the IC50 is more than 20 µM.

Turning to `Cc1nsc(Nc2cnc(C(F)(F)F)cn2)c1C(=O)Nc1ccc(O[C@@H]2CCN(CC(F)F)C[C@H]2F)nc1` [Example 366, N-(6-{[(3R,4R)-1-(2,2-difluoroethyl)-3-fluoropiperidin-4-yl]oxy}pyridin-3-yl)-3-methyl-5-{[5-(trifluoromethyl)pyrazin-2-yl]amino}-1,2-thiazole-4-carboxamide], the IC50 was more than 20 µM.

With `Cc1nsc(Nc2cnc(C(F)(F)F)cn2)c1C(=O)Nc1ccc(O[C@@H]2CCN(CC(F)(F)F)C[C@H]2F)nc1` [Example 367, N-(6-{[(3R,4R)-3-fluoro-1-(2,2,2-trifluoroethyl)piperidin-4-yl]oxy}pyridin-3-yl)-3-methyl-5-{[5-(trifluoromethyl)pyrazin-2-yl]amino}-1,2-thiazole-4-carboxamide], the IC50 was more than 20 µM.

For `Cc1nsc(Nc2cnc(C(F)(F)F)cn2)c1C(=O)Nc1ccc(O[C@@H]2CCN(CCC(F)(F)F)C[C@H]2F)nc1` [Example 368, N-(6-{[(3R,4R)-3-fluoro-1-(3,3,3-trifluoropropyl)piperidin-4-yl]oxy}pyridin-3-yl)-3-methyl-5-{[5-(trifluoromethyl)pyrazin-2-yl]amino}-1,2-thiazole-4-carboxamide], the IC50 was more than 20 µM.

Regarding `CCN1CC[C@@H](Oc2ccc(NC(=O)c3c(C)nsc3Nc3cnc(C(F)(F)F)cn3)cn2)[C@H](F)C1` [Example 369, N-(6-{[(3R,4R)-1-ethyl-3-fluoropiperidin-4-yl]oxy}pyridin-3-yl)-3-methyl-5-{[5-(trifluoromethyl)pyrazin-2-yl]amino}-1,2-thiazole-4-carboxamide], the IC50 was more than 20 µM.

On to `Cc1nsc(Nc2cnc(C(F)(F)F)cn2)c1C(=O)Nc1ccc(N2CCN(CC(F)F)CC2)cn1` [Example 372, N-{5-[4-(2,2-difluoroethyl)piperazin-1-yl]pyridin-2-yl}-3-methyl-5-{[5-(trifluoromethyl)pyrazin-2-yl]amino}-1,2-thiazole-4-carboxamide], for which the IC50 is more than 20 µM.

Turning to `Cc1nsc(Nc2cnc(C(F)(F)F)cn2)c1C(=O)Nc1ccc(N2CCN(CC(F)(F)F)CC2)cn1` [Example 373, 3-methyl-N-{5-[4-(2,2,2-trifluoroethyl)piperazin-1-yl]pyridin-2-yl}-5-{[5-(trifluoromethyl)pyrazin-2-yl]amino}-1,2-thiazole-4-carboxamide], the IC50 is more than 20 µM.

Regarding `Cc1nsc(Nc2cnc(C(F)(F)F)cn2)c1C(=O)Nc1ccc(N2CCN(CCC(F)(F)F)CC2)cn1` [Example 374, 3-methyl-5-{[5-(trifluoromethyl)pyrazin-2-yl]amino}-N-{5-[4-(3,3,3-trifluoropropyl)piperazin-1-yl]pyridin-2-yl}-1,2-thiazole-4-carboxamide], the IC50 was more than 20 µM.

Regarding `Cc1nsc(Nc2cnc(C(F)(F)F)cn2)c1C(=O)Nc1ccc(OC[C@@H]2CCCN(CC(F)F)C2)nc1` [Example 375, N-(6-{[(3R)-1-(2,2-difluoroethyl)piperidin-3-yl]methoxy}pyridin-3-yl)-3-methyl-5-{[5-(trifluoromethyl)pyrazin-2-yl]amino}-1,2-thiazole-4-carboxamide], the IC50 was more than 20 µM.

`Cc1nsc(Nc2cnc(C(F)(F)F)cn2)c1C(=O)Nc1ccc(OC[C@@H]2CCCN(CC(F)(F)F)C2)nc1` [Example 376, 3-methyl-N-(6-{[(3R)-1-(2,2,2-trifluoroethyl)piperidin-3-yl]methoxy}pyridin-3-yl)-5-{[5-(trifluoromethyl)pyrazin-2-yl]amino}-1,2-thiazole-4-carboxamide]: the IC50 was more than 20 µM.

For the compound `Cc1nsc(Nc2cnc(C(F)(F)F)cn2)c1C(=O)Nc1ccc(O[C@H]2CCN(CC(F)F)C2)nc1` [Example 382, N-(6-{[(3S)-1-(2,2-difluoroethyl)pyrrolidin-3-yl]oxy}pyridin-3-yl)-3-methyl-5-{[5-(trifluoromethyl)pyrazin-2-yl]amino}-1,2-thiazole-4-carboxamide], the IC50 was more than 20 µM.

For `Cc1nsc(Nc2cnc(C(F)(F)F)cn2)c1C(=O)Nc1ccc(O[C@@H]2CCCN(CCC(F)(F)F)C2)nc1` [Example 387, 3-methyl-5-{[5-(trifluoromethyl)pyrazin-2-yl]amino}-N-(6-{[(3R)-1-(3,3,3-trifluoropropyl)piperidin-3-yl]oxy}pyridin-3-yl)-1,2-thiazole-4-carboxamide], the IC50 was not below 20 µM.
